Test results reported in patent US7244847B2, “Benzimidazole compounds” (Isis Pharmaceuticals, Inc., priority 2002, dated 2007).
In brackets after ≈: the same amount, converted by molar mass. Read-outs that look alike come from different tables or passages of the source.

Experiments:
[1] = system: S. aureus; assay: in vitro antibacterial activity (MIC) against S. aureus; assay type: cell-based; settings: Staphylococcus aureus; Tables 1 and 2
Procedure: (§2) Compounds were evaluated for in vitro antibacterial activity (referred to MIC, the minimum concentration inhibiting fungal cell growth) against S. aureus and E. coli. […] The assays are carried out in 150 mL volume in duplicate in 96-well clear flat-bottom plates. […] Final bacterial or yeast inoculum is approximately 10^2-10^3 CFU/well. […] (bacteria) or 40-48 hours (yeast) at 25° C. The MIC is determined as a range of concentration where complete inhibition of growth is observed at the higher concentration and bacterial/yeast cells are viable at the lower concentration. Ampicillin and tetracycline are used as antibiotic positive controls for bacterial MIC assays.
(§3) The assays are carried out in 150 μL volume in duplicate in 96-well clear flat-bottom plates. […] Final bacterial or yeast inoculum is approximately 10^2-10^3 CFU/well. […] (bacteria) or 40-48 hours (yeast) at 25° C. The MIC is determined as a range of concentration where complete inhibition of growth is observed at the higher concentration and bacterial/yeast cells are viable at the lower concentration. Ampicillin and tetracycline are used as antibiotic positive controls for bacterial MIC assays.

[2] = system: E. coli; assay: in vitro antibacterial activity (MIC) against E. coli; assay type: cell-based; settings: Escherichia coli; Tables 1 and 2
Procedure: as §2, §3

[3] = system: Bacterial Transcription/Translation; assay: bacterial transcription/translation assay (pBestLuc luciferase, E. coli S30 extract); assay type: biochemical
Procedure: This series of assays is known to those of skill in the art, and other assays may be substituted therefore without deviating from the spirit and scope hereof. The DNA template, pBestLuc™ (Promega), is a plasmid containing a reporter gene for firefly luciferase fused to a strong tac promoter and ribosome binding site. Messenger RNA from 1 μg pBestLuc is transcribed and translated in E. coli S30 bacterial extract in the presence or absence of test compound. Compounds are tested in a black 96 well microtiter plate with an assay volume of 35 μL. […] The transcription/translation reaction is incubated for 35 minutes at 37° C. followed by detection of functional luciferase with the addition of 30 μL LucLite™ (Packard). Light output is quantitated on a Packard TopCount.

[4] = system: E. coli; assay: MIC assay of Example 20, E. coli; assay type: cell-based; settings: Tables 4-7
Procedure: (§1) The assays are carried out in 150 μL volume in duplicate in 96-well clear flat-bottom bottom plates. The bacterial suspension from an overnight culture growth in appropriate medium is added to a solution of test compound in 4% DMSO in water. Final bacterial inoculum is approximately 10^5-10^6 CFU/well. The percent growth of the bacteria in test wells relative to that observed for a well containing no compound is determined by measuring absorbance at 595 nm (A595) after 24 h. The MIC is determined as a range of single compound where the complete inhibition of growth is observed at the higher concentration and cells are viable at the lower concentrations. Both ampicillin and tetracycline are used as antibiotic-positive controls in each screening assay for S. pyogenes, E. coli, S. aureus, E. faecalis, K. pneumoniae and P. vulgaris; . Ciprofloxacin is used as an antibiotic positive control in each screening assay for P. aeruginosa.

[5] = system: S. aureus; assay: MIC assay of Example 20, S. aureus; assay type: cell-based; settings: Tables 4-7
Procedure: as §1

[6] = system: Ag IIa HCV IRES Target; assay: MASS screening against Ag IIa HCV IRES target; assay type: binding; settings: target conc. […], ligand conc. 50 μM; for Selectivity: by mass spectral analysis
Procedure: A series of 2-aminobenzimidazole dimers were synthesized according to the procedure described in Example 11. A series of 5- and 6-substituted-2-aminobenzimidazoles also were synthesized, and all were evaluated for biological activity. Tables 4-7 report MIC and transcription/translation activity for the dimer compounds By the outlined procedure. Tables 8 and 9 report the MASS screening of 2-aminobenzimidazoles against the AgIIa HCV-IRES target. The reported selectivity was determined by mass spectral analysis of any associations and provides information about the relative binding affinities.

[7] = system: E. coli 16S A-site; assay: MS-based assay of binding affinity for 16S RNA A-site
Text: It has been established that the 16S A-site is involved in bacterial translation, and the aminoglycosides are known to bind to the region. Thus, the bacterial 16S A-site represents a prime target for discovering antibacterial agents, and much work has focused on the modification of the natural aminoglycosides. […] These are shown below in Scheme 17. [drawing 31]
The synthesis of compound 1 and piperidine-modified benzimidazoles are shown above in Scheme 17.
A series of benzimidazole-modified analogs were prepared as shown above. The procedure required the simple heating of a suitable 1,2-dianiline (8) with isonipecotic acid (9) in the presence of polyphosphoric acid.

[8] = system: E. coli 16S A-site; assay: MS-based competition experiments to determine the binding location; settings: competition of 1 with glucosamine
Text: MS-based competition experiments were used to determine the binding location of 1 to the target RNA. Glucosamine is the A-ring of paromomycin that is known to bind to the target RNA and inhibits bacterial translation.

[9] = Tables 4-7, read-out: Transcription/Translation, IC50

## CC(C)(C)OC(=O)N1CCC(c2nc3cc(Cl)c(Cl)cc3n2Cc2ccc(CBr)cc2)CC1 [Compound 4g]
[1]
  MIC: 52 µM (≈ 28.8 µg/mL)
[2]
  MIC: > 100 µM
[3]; Tables 1 and 2, bacterial transcription/translation, read-out: T/T IC50 MIC
  IC50: > 100 µM

## CN(CCn1c(N)nc2ccccc21)CCn1c(N)nc2ccccc21 [X = H]
[3]; [9]
  IC50: > 100 µM
[4]
  MIC: >100 µM
[5]
  MIC: >100 µM

## CN(CCn1c(N)nc2cc(Cl)c(Cl)cc21)CCn1c(N)nc2cc(Cl)c(Cl)cc21 [X = Cl]
[3]; [9]
  IC50: > 100 µM
[4]
  MIC: >100 µM
[5]
  MIC: >100 µM

## Cc1ccc2nc(N)n(CCCN(C)C)c2c1 [CH3]
[6]
  % Complex: 136%
  % Dimer: 31%
  Selectivity: 6.55

## Cc1ccc2nc(N)n(CCCN(C)CCCn3c(N)nc4ccc(C)cc43)c2c1
[3]; [9]
  IC50: 6 to 12 µM
[4]; Escherichia coli
  MIC: > 100 µM
[5]; Staphylococcus aureus
  MIC: > 100 µM

## CN(CCCn1c(N)nc2cc(C(F)(F)F)ccc21)CCCn1c(N)nc2cc(C(F)(F)F)ccc21
[3]; [9]
  IC50: > 100 µM
[4]; Escherichia coli
  MIC: 25 to 50 µM (≈ 12.8 to 25.7 µg/mL)
[5]; Staphylococcus aureus
  MIC: 50 to 100 µM (≈ 25.7 to 51.3 µg/mL)

## CN(CCCn1c(N)nc2cc(C#N)ccc21)CCCn1c(N)nc2cc(C#N)ccc21
[3]; [9]
  IC50: > 200 µM
[4]; Escherichia coli
  MIC: > 200 µM
[5]; Staphylococcus aureus
  MIC: > 200 µM

## CN(CCCn1c(N)nc2cc(Cl)c(Cl)cc21)CCCn1c(N)nc2cc(Cl)c(Cl)cc21 [X = N—Me]
[3]; [9]
  IC50: 25 µM
[4]
  MIC, E. coli: 25 to 50 µM
[5]
  MIC, S. aureus: 75 to 100 µM

## CN(CCCn1c(N)nc2cc(Cl)c(Cl)cc21)CCCn1c(N)nc2cc(Cl)c(Cl)cc21 [drawing 35]
[3]; [9]
  IC50: > 100 µM
[4]; Escherichia coli
  MIC: 12 to 25 µM (≈ 6.18 to 12.9 µg/mL)
[5]; Staphylococcus aureus
  MIC: 12 to 25 µM (≈ 6.18 to 12.9 µg/mL)

## COc1ccc2nc(N)n(CCCN(C)C)c2c1 [OCH3]
[6]
  % Complex: 286%
  % Dimer: 39%
  Selectivity: 10.67

## CC(=O)N1CCC(c2nc3cc([N+](=O)[O-])ccc3[nH]2)CC1 [Compound 7a]
[7]
  binding affinity for 16S RNA A-site, in words: diminished the binding affinity

## CN(CCCn1c(N)nc2cc(Br)ccc21)CCCn1c(N)nc2cc(Br)ccc21
[3]; [9]
  IC50: > 100 µM
[4]; Escherichia coli
  MIC: 25 to 50 µM (≈ 13.4 to 26.8 µg/mL)
[5]; Staphylococcus aureus
  MIC: 25 to 50 µM (≈ 13.4 to 26.8 µg/mL)

## CN(CCCn1c(N)nc2ccccc21)CCCn1c(N)nc2ccccc21
[3]; [9]
  IC50: 25 µM
[4]; Escherichia coli
  MIC: 25 to 50 µM (≈ 9.44 to 18.9 µg/mL)
[5]; Staphylococcus aureus
  MIC: 75 to 100 µM (≈ 28.3 to 37.7 µg/mL)

## CN(C)CCCn1c(N)nc2cc(CN)ccc21 [CH2NH2]
[6]
  % Complex: 109%
  % Dimer: 80%
  Selectivity: 2.3

## c1cnc2nc(C3CCNCC3)[nH]c2c1 [Compound 10j]
[7]
  binding affinity for 16S RNA A-site, in words: reduced activities

## CN(C)CCCn1c(N)nc2ccccc21 [H]
[6]
  % Complex: 125%
  % Dimer: 35%
  Selectivity: 4.30

## CN(C)CCCn1c(N)nc2ccccc21 [drawing 42]
[3]; [9]
  IC50: > 100 µM
[4]; Escherichia coli
  MIC: > 50 µM
[5]; Staphylococcus aureus
  MIC: > 50 µM

## Cc1ccc2[nH]c(C3CCNCC3)nc2c1 [Compound 10b]
[7]
  binding affinity for 16S RNA A-site, in words: tolerated

## N[C@H]1C(O)O[C@H](CO)[C@@H](O)[C@@H]1O (some centres unmarked) [glucosamine]
[8]
  binding site on the target RNA (competition), in words: compete for the same binding site

## COC(=O)c1ccc2c(c1)nc(N)n2CCCN(C)CCCn1c(N)nc2cc(C(=O)OC)ccc21
[3]; [9]
  IC50: > 100 µM
[4]; Escherichia coli
  MIC: > 200 µM
[5]; Staphylococcus aureus
  MIC: > 200 µM

## Clc1ccc2[nH]c(C3CCNCC3)nc2c1 [Compound 10d]
[7]
  binding affinity for 16S RNA A-site, in words: tolerated

## CN(C)CCCOc1ccc2nc(N)n(CCCN(C)C)c2c1 [O(CH2)3N(CH3)2]
[6]
  % Complex: 862%
  % Dimer: 72%
  Selectivity: 96.88
